# Legend:
# [1] = system: PD patients with LID; assay: PD Home Dyskinesia eDiary (good ON time); assay type: in vivo, human
# Text: A PD Home Dyskinesia Diary (electronic) would be completed by the patients and/or caregiver with concordance in ON time with dyskinesia between study staff and patient. The diary is integrated in the Kinesia 360 wearable dyskinesia assessment system and is based on the PD Home Diary developed by Hauser (Hauser […]. Parkinson's Disease Home Diary: Further Validation and Implications for Clinical Trials. Mov. Discord. 19 (12), 2004). The diary would be used to score 5 different conditions in 30-minute time intervals during 2×24 hours prior to Visit 2, Visit 6 and Visit 7: • ASLEEP; • OFF; • ON (i.e., adequate control of PD symptoms) without dyskinesia; • ON with non-troublesome dyskinesia; • ON with troublesome dyskinesia.
# [2] = system: PD patients with LID; assay: Hospital Anxiety Depression Scale (HADS); assay type: in vivo, human
# Text: The HADS is used to determine the levels of anxiety and depression that a person is experiencing. The questionnaire consists of 7 items related to anxiety and 7 related to depression. Each item on the questionnaires is scored from 0-3, which means that a person can score between 0 and 21 for either anxiety or depression.
# [3] = system: PD patients with LID; assay: Parkinson's Disease Questionnaire (PDQ39); assay type: in vivo, human; details: for PDQ39, mean change from baseline: per-protocol set
# Text: The PDQ39-item patient reported outcome of health status and quality of life and is the most frequently used disease-specific health status measure for PD. The questionnaire assesses how often people affected by PD experience difficulties across 8 dimensions of daily living. The standard PDQ39 assesses quality of life over the previous month. In this study the initial time period assessed at the Baseline Visit would be the previous month, with subsequent assessments for the intervening period since the last clinic visit (about 3 weeks). The 8 quality of life dimensions covered in the questionnaire are: • gg. Mobility (10 items #1-10) • hh. ADL (6 items #11-16) • ii. Emotional Well Being (6 items #17-22) • jj. Stigma (4 items #23-26) • kk. Social Support (3 items #27-29) • ll. Cognition (4 items #30-33) • mm. Communications (3 items #34-36) • nn. Bodily Discomfort (3 items #37-39) Individual items are rated by the patient on a scale of […]. Dimension scores are calculated on a scale of 0 to 100. The total score and individual dimension scores would be assessed for change from baseline.
# [4] = system: PD patients with LID; assay: King's Parkinson's Disease Pain Scale (KPPS); assay type: in vivo, human; details: for KPPS, mean change from baseline: per-protocol set, p < 0.01 vs baseline
# Text: The KPPS is a rater-interview-based scale conducted with the patient and caregiver (if available). It is a 14-item scale covering 7 domains of pain: • z. Musculoskeletal pain • aa. Chronic pain • bb. Fluctuation-related pain • cc. Nocturnal pain • dd. Orofacial pain • ee. Edema/swelling; discoloration • ff. Radicular pain Each item is scored by severity (0-3; none to very severe) multiplied by frequency (0-4; never to all the time), for an item sub score of 0-12, resulting in a total score from 0 to 168. Ratings are based on the previous month, or in the case of this study, the intervening period since the previous clinic visit (about 3 weeks). Treatment effects would be analyzed as change from baseline for total score and for individual pain domains.
# [5] = system: PD patients with LID; assay: ICIQ Overactive Bladder Module (ICIQ-OAB); assay type: in vivo, human; details: for ICIQ-OAB, mean change from baseline: per-protocol set
# Text: The ICIQ-OAB provides a brief and robust measure to assess the impact of symptoms of overactive bladder on quality of life and outcome of treatment. It is a 4-item patient reported outcome covering 4 domains of bladder function: frequency, nocturia, urgency, and urge urinary incontinence. Each item is scored by frequency of 0-4, for a total score of 0-16. Ratings would be based on the previous month or since the last clinic visit. Efficacy would be assessed as change from the baseline total score.
# [6] = both, human, in vivo
# Text: Based on the befiradol Cmax values observed in healthy male volunteers reported in WO 2016/005527, the sustained release compositions disclosed above in Tables 26-28 would be expected to provide Cmax values not less than those shown in Table 29 after a single oral administration to patients with Parkinson's disease. […] Therefore, the Cmax values in Table 29 for SR1-SR9 may be higher (e.g., by 10% or 20%) when administered to patients with Parkinson's disease since young adults rarely experience Parkinson's disease, which usually develops around age 60 or older.
# [7] = system: MPTP-treated marmosets; details: in vivo; cited from earlier work
# [8] = target: T1, 5-HT1A receptors (Homo sapiens, UniProt P08908); details: cited from earlier work
# T1 sequence (P08908 1-422): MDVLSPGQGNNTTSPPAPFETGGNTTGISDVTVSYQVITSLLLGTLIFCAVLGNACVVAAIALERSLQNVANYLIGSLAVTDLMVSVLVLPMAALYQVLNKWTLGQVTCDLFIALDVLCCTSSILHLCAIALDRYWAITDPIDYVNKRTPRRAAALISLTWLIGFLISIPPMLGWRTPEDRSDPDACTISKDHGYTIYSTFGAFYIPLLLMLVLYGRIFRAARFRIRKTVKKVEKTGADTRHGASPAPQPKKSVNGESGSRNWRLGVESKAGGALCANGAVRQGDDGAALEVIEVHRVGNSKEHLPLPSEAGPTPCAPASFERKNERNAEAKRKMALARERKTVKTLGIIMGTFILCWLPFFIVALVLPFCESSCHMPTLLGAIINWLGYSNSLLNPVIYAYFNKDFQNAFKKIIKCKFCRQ
# [9] = per-protocol set (n = 15), Baseline
# [10] = per-protocol set, Δ D 28 (end of up-titration)
smiles,measurement,setting,value
"Cc1ccc(CNCC2(F)CCN(C(=O)c3ccc(F)c(Cl)c3)CC2)nc1 [NLX-112, (3-chloro-4-fluoro-phenyl)-[4-fluoro-4-{[(5-methyl-pyridin-2-ylmethyl)-amino]-methyl}piperidin-1-yl]methanone]","good ON time, mean absolute change from baseline","[1]; Day 28, n=13, eDiary",+5.7%
same,"good ON time, significance of change from baseline within or between groups",[1]; Day 28 or Day 42,no statistically significant changes
same,"good ON time, mean absolute change from baseline","[1]; Day 42, n=12, eDiary",+5.2%
same,anxiety and depression (HADS),[2]; Days 28 or 42,no consistent statistically significant effect
same,"HADS (Anxiety), mean",[2]; [9],4.5
same,"HADS (Depression), mean",[2]; [9],3.7
same,"HADS (Anxiety), mean change from baseline",[2]; [10],−0.5
same,"HADS (Depression), mean change from baseline",[2]; [10],−0.4
same,"HADS (Depression), mean change from baseline","[2]; per-protocol set, Δ D 42 (end of stable dosing)",−0.6
same,quality of life (PDQ39 score),[3]; Days 28 or 42,no consistent statistically significant effect
same,"PDQ39, mean",[3]; [9],18.7
same,"PDQ39, mean change from baseline",[3]; Δ D 28 (end of up-titration),−1.5
same,"PDQ39, mean change from baseline",[3]; Δ D 42 (end of stable dosing),−0.6
same,"KPPS total score (reported pain), change from baseline","[4]; Day 42, also seen with placebo",statistically significant improvement
same,"KPPS, mean",[4]; [9],16.0
same,"KPPS, mean change from baseline",[4]; Δ D 28 (end of up-titration),−4.6
same,"KPPS, mean change from baseline",[4]; Δ D 42 (end of stable dosing),−4.8
same,incontinence (ICIQ-OAB),[5]; Days 28 or 42,no consistent statistically significant effect
same,"ICIQ-OAB, mean",[5]; [9],18.3
same,"ICIQ-OAB, mean change from baseline",[5]; Δ D 28 (end of up-titration),0.7
same,"ICIQ-OAB, mean change from baseline",[5]; Δ D 42 (end of stable dosing),−0.8
same,"Cmax in female subjects, higher than males",[6],20%-40
same,disability scores,[7],reduces disability scores
same,agonist efficacy at 5-HT1A receptors,[8],full agonist properties
same,selectivity for 5-HT1A receptors,[8],exceptional selectivity

# From patent US20250295648A1 (priority 2024, published 2025)
